Experimental data reported in patent publication US20240262815A1, “HETEROARYL DERIVATIVE, METHOD FOR PREPARING SAME, AND PHARMACEUTICAL COMPOSITION COMPRISING SAME AS ACTIVE INGREDIENT” (VORONOI INC., priority 2021, published 2024).

Key:
SK-BR-3 cancer cells = assay: Inhibitory activity against proliferation of SK-BR-3 cancer cells (CellTiter-Glo); format: cell-based; conditions: Homo sapiens, SK-BR-3, 120 h, ErbB2-overexpressing SK-BR-3 cells, 120 hours after treatment
Outline: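 GI50 derived from % growth relative to control, measured by CellTiter-Glo luminescence after 120 h compound exposure (12 concentrations, 0.2 nM-5 μM final, n=3). BT-474 grown in RPMI-1640/20% FBS, SK-BR-3 in McCOY'S 5A/10% FBS; seeding 48 h pre-treatment.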

BT-474 cancer cells = assay: Inhibitory activity against proliferation of BT-474 cancer cells (CellTiter-Glo); format: cell-based; conditions: Homo sapiens, BT-474 ErbB2-overexpressing cancer cells, 120 hours after treatment
Procedure: To evaluate the inhibitory activity of a compound according to the present invention against the proliferation of ErbB2-overexpressing cancer cells, the following experiment were performed.
10% FBS-added McCOY'S 5A was used for SK-BR-3 cancer cells. 20% FBS-added RPMI-1640 was used for BT-474 cancer cells. Transduced Ba/F3 cells were cultured in a RPMI-1640 medium to which 1 μg/ml puromycin (Invitrogen) was added.
48 hours before compound treatment, each type of the SK-BR-3 and BT-474 cells were seeded at 5,000 cells/well in a white clear bottom 96 well plate (Corning). The compound was diluted in dimethyl sulfoxide (SK-BR-3: 3-fold dilution, a total of 12 concentrations, BT-474: […], a total of 12 concentrations) and injected at 1 μl to have the final concentration of 0.2 nM to 5 μM. As for measurement of live cells, 120 hours after treatment with the compound, a CellTiter-Glo luminescent cell-viability reagent (Promega) was used to store the cells at room temperature for 10 minutes, followed by measurement of luminescence using a reader (SynergyNeo, Biotek). Each test was repeated three times.
The result values were calculated as a cell growth rate (%) compared to the control group. A graph was plotted using the GraphPad Prism version 8.3.0 program, and GI50 values were calculated.

Compound | GI50 (SK-BR-3 cancer cells) | GI50 (BT-474 cancer cells)
C=CC(=O)Nc1cc(Nc2cc(N3OCC[C@@H]3c3cccc(-c4ccccc4)c3)ncn2)c(OC)cc1N(C)CCN(C)C [Example 173, (R)-N-(5-((6-(3-([1,1′-biphenyl]-3-yl)isoxazolidin-2-yl)pyrimidin-4-yl)amino)-2-((2-(dimethylamino)-ethyl)(methyl)-amino)-4-methoxy-phenyl)acrylamide] | < 50 nM | < 50 nM
C=CCN1CCN(c2cc(OC)c(Nc3cc(N4OCC[C@@H]4c4cccc(-c5ccccc5)c4)ncn3)cc2NC(=O)C=C)CC1 [Example 174, (R)-N-(5-((6-(3-([1,1′-biphenyl]-3-yl)isoxazolidin-2-yl)pyrimidin-4-yl)amino)-2-(4-allylpiperazin-1-yl)-4-methoxy-phenyl)acrylamide] | < 50 nM | < 50 nM
C=CC(=O)Nc1cc(Nc2cc(N3OCC[C@@H]3c3cccc(-c4ccccc4)c3)ncn2)c(OC)cc1N1CCO[C@@H](C)C1 [Example 175, N-(5-((6-((R)-3-([1,1′-biphenyl]-3-yl)isoxazolidin-2-yl)pyrimidin-4-yl)-amino)-4-methoxy-2-((S)-2-methyl-morpholino)phen-yl)acrylamide] | < 50 nM | < 50 nM
C=CC(=O)Nc1cc(Nc2cc(N3OCC[C@@H]3c3cccc(-c4ccccc4)c3)ncn2)c(OC)cc1N1CCO[C@H](C)C1 [Example 176, N-(5-((6-((R)-3-([1,1′-biphenyl]-3-yl)isoxazolidin-2-yl)pyrimidin-4-yl)-amino)-4-methoxy-2-((R)-2-methyl-morpholino)phen-yl)acrylamide] | < 50 nM | < 50 nM
C=CC(=O)Nc1cc(Nc2cc(N3OCCC3c3cccc(-c4cnc5ccnn5c4)c3)ncn2)c(OC)cc1N1CCN(C)CC1 (stereo not drawn) [Example 201, N-(4-methoxy-2-(4-methylpiper-azin-1-yl)-5-((6-(3-(3-(pyrazolo-[1,5-a]pyrimidin-6-yl)phenyl)-isoxazolidin-2-yl)-pyrimidin-4-yl)-amino)phenyl)-acrylamide] | < 50 nM | < 50 nM
C=CC(=O)Nc1cc(Nc2cc(N3OCCC3c3cccc(-c4ccc(C)s4)c3)ncn2)c(OC)cc1N(C)CCN(C)C (stereo not drawn) [Example 213, N-(2-((2-(dimeth-ylamino)ethyl)-(methyl)amino)-4-methoxy-5-((6-(3-(3-(5-methylthio-phen-2-yl)phenyl)-isoxazolidin-2-yl)-pyrimidin-4-yl)-amino)phenyl)-acrylamide] | 50 to 500 nM | 50 to 500 nM
C=CC(=O)Nc1cc(Nc2cc(N3OCC[C@@H]3c3cccc(-c4ccccc4)c3)ncn2)c(OC)cc1N1CCN(CC)CC1 [Example 216, (R)-N-(5-((6-(3-([1,1′-biphenyl]-3-yl)isoxazolidin-2-yl)pyrimidin-4-yl)-amino)-2-(4-ethyl-piperazin-1-yl)-4-methoxyphenyl)-acrylamide] | < 50 nM | < 50 nM
C=CC(=O)Nc1cc(Nc2cc(N3OCC[C@@H]3c3cc(F)cc(Oc4ccn(C)n4)c3)ncn2)c(OC)cc1N1CCC(N2CCN(C3CC3)CC2)CC1 [Example 219, (R)-N-(2-(4-(4-cyclopropylpiper-azin-1-yl)piper-idin-1-yl)-5-((6-(3-(3-fluoro-5-((1-methyl-1H-pyr-azol-3-yl)oxy)-phenyl)isoxazol-idin-2-yl)pyrim-idin-4-yl)amino)-4-methoxyphen-yl)acrylamide] | < 50 nM | < 50 nM
C=CC(=O)Nc1cc(Nc2cc(N3OCC[C@@H]3c3cccc(-c4cccc(C#N)c4)c3)ncn2)c(OC)cc1N1CCN(C)CC1 [Example 330, (R)-N-(5-((6-(3-(3′-cyano-[1,1′-biphenyl]-3-yl)-isoxazolidin-2-yl)-pyrimidin-4-yl)-amino)-4-methoxy-2-(4-methylpiper-azin-1-yl)phenyl)-acrylamide] |  | < 50 nM
C=CC(=O)Nc1cc(Nc2cc(N3OCC[C@@H]3c3cccc(-c4ccc(OC)nc4)c3)ncn2)c(OC)cc1N1CCN(C)[C@@H](C)C1 [Example 331, N-(2-((S)-3,4-dimethylpiperazin-1-yl)-4-methoxy-5-((6-((R)-3-(3-(6-methoxypyridin-3-yl)phenyl)isoxazol-idin-2-yl)pyrim-idin-4-yl)amino)-phenyl)acrylamide] |  | < 50 nM
C=CC(=O)Nc1cc(Nc2cc(N3OCC[C@@H]3c3cccc(-c4ccc(C(F)(F)F)cc4)c3)ncn2)c(OC)cc1N1CCN(C)CC1 [Example 332, (R)-N-(4-methoxy-2-(4-methylpiper-azin-1-yl)-5-((6-(3-(4′-(trifluoro-methyl)-[1,1′-bi-phenyl]-3-yl)-isoxazolidin-2-yl)-pyrimidin-4-yl)-amino)phenyl)-acrylamide] |  | 50 to 500 nM
C=CC(=O)Nc1cc(Nc2cc(N3OCC[C@@H]3c3cccc(-c4ccc(C#N)cc4)c3)ncn2)c(OC)cc1N1CCN(C)CC1 [Example 333, (R)-N-(5-((6-(3-(4′-cyano-[1,1′-biphenyl]-3-yl)-isoxazolidin-2-yl)-pyrimidin-4-yl)-amino)-4-methoxy-2-(4-methylpiper-azin-1-yl)phenyl)-acrylamide] |  | < 50 nM
C=CC(=O)Nc1cc(Nc2cc(N3OCC[C@@H]3c3cccc(C(=O)Nc4ccccc4)c3)ncn2)c(OC)cc1N1CCN(C)CC1 [Example 334, (R)-3-(2-(6-((5-acrylamido-2-meth-oxy-4-(4-methyl-piperazin-1-yl)-phenyl)amino)pyr-imidin-4-yl)isox-azolidin-3-yl)-N-phenylbenzamide] |  | < 50 nM
COc1cc(F)c(NC(=O)/C=C/CN(C)C)cc1Nc1cc(N2OCC[C@@H]2c2cccc(-c3cccc(F)c3)c2)ncn1 [Example 335, (R,E)-4-(dimethyl-amino)-N-(2-fluoro-5-((6-(3-(3′-fluoro-[1,1′-biphen-yl]-3-yl)isoxazol-idin-2-yl)pyrim-idin-4-yl)amino)-4-methoxyphen-yl)but-2-enamide] |  | < 50 nM
C=CC(=O)Nc1cc(Nc2cc(N3OCC[C@@H]3c3cccc(-c4cccc(F)c4)c3)ncn2)c(OC)cc1N1CCN(CCO)CC1 [Example 336, (R)-N-(5-((6-(3-(3′-fluoro-[1,1′-biphenyl]-3-yl)-isoxazolidin-2-yl)-pyrimidin-4-yl)-amino)-2-(4-(2-hydroxyethyl)-piperazin-1-yl)-4-methoxyphenyl)-acrylamide] |  | < 50 nM
C=CC(=O)Nc1cc(Nc2cc(N3OCC[C@@H]3c3cccc(-c4cccc(C)c4C)c3)ncn2)c(OC)cc1N1CCN(C)CC1 [Example 337, (R)-N-(5-((6-(3-(2′,3′-dimethyl-[1,1′-biphenyl]-3-yl)isoxazolidin-2-yl)pyrimidin-4-yl)-amino)-4-methoxy-2-(4-methylpiper-azin-1-yl)phenyl)-acrylamide] |  | < 50 nM
C=CC(=O)Nc1cc(Nc2cc(N3OCC[C@@H]3c3cccc(-c4cccc(C(=O)OC)c4)c3)ncn2)c(OC)cc1N1CCN(C)CC1 [Example 338, methyl (R)-3′-(2-(6-((5-acrylamido-2-methoxy-4-(4-methylpiperazin-1-yl)phenyl)-amino)pyrimidin-4-yl)isoxazolidin-3-yl)-[1,1′-biphen-yl]-3-carboxylate] |  | < 50 nM
C=CC(=O)Nc1cc(Nc2cc(N3OCC[C@@H]3c3cccc(-c4cccc(F)c4)c3)ncn2)c(OC)cc1N1CCC2(CC1)COC2 [Example 339, (R)-N-(5-((6-(3-(3′-fluoro-[1,1′-biphenyl]-3-yl)-isoxazolidin-2-yl)-pyrimidin-4-yl)-amino)-4-methoxy-2-(2-oxa-7-azas-piro[3.5]nonan-7-yl)phenyl)acryl-amide] |  | < 50 nM
C=CC(=O)Nc1cc(Nc2cc(N3OCC[C@@H]3c3cccc(-c4cccc(F)c4F)c3)ncn2)c(OC)cc1N1CCN(C2COC2)CC1 [Example 340, (R)-N-(5-((6-(3-(2′,3′-difluoro-[1,1′-biphenyl]-3-yl)isoxazolidin-2-yl)pyrimidin-4-yl)-amino)-4-methoxy-2-(4-(oxetan-3-yl)-piperazin-1-yl)-phenyl)acrylamide] |  | < 50 nM
C=CC(=O)Nc1cc(Nc2cc(N3OCC[C@@H]3c3cccc(-c4cccc(F)c4)c3)ncn2)c(OC)cc1N1CC2(C1)CN(C1COC1)C2 [Example 341, (R)-N-(5-((6-(3-(3′-fluoro-[1,1′-biphenyl]-3-yl)-isoxazolidin-2-yl)-pyrimidin-4-yl)-amino)-4-methoxy-2-(6-(oxetan-3-yl)-2,6-diazaspiro-[3.3]heptan-2-yl)-phenyl)acrylamide] |  | < 50 nM
C=CC(=O)Nc1cc(Nc2cc(N3OCC[C@@H]3c3cccc(-c4cccc(C(=O)N(C)C)c4)c3)ncn2)c(OC)cc1N1CCN(C)CC1 [Example 342, (R)-3′-(2-(6-((5-acrylamido-2-methoxy-4-(4-methylpiperazin-1-yl)phenyl)-amino)pyrimidin-4-yl)isoxazolidin-3-yl)-N,N-dimeth-yl-[1,1′-biphenyl]-3-carboxamide] |  | < 50 nM
C=CC(=O)Nc1cc(Nc2cc(N3OCC[C@@H]3c3cccc(-c4cccc(F)c4)c3)ncn2)c(OC)cc1N1CCC2(CC1)CN(C)C2 [Example 343, (R)-N-(5-((6-(3-(3′-fluoro-[1,1′-biphenyl]-3-yl)-isoxazolidin-2-yl)-pyrimidin-4-yl)-amino)-4-methoxy-2-(2-methyl-2,7-diazaspiro[3.5]-nonan-7-yl)phen-yl)acrylamide] |  | < 50 nM
